Experimental data: PMC12040169 (PLOS Biology, 2025)

Test: in vitro
Settings: human, hela cells, % viability

Row | SMILES | viability at 28.5 h, 10 µM [%]
1 | Cc1ccc(S(N)(=O)=O)cc1N [CBK024851] | 109
2 | Nc1ccccc1CC(c1c[nH]c2ccccc12)c1c[nH]c2ccccc12 [CBK261780] | 103
3 | Cc1cccc2c1ncn1c(=O)n(CC(=O)Nc3cccc(Cl)c3)nc21 [CBK287815] | 81.8
4 | COc1ccc(NC(=O)C(OC)c2ccccc2)cc1Cl (stereo not shown) [CBK264098] | 95.2
5 | Cc1nn(C)cc1-c1cncn1C(C)(C)CN1CCC(C)CC1 [CBK281740] | 108
6 | O=C(COc1ccccc1Cl)Nc1cccc(NC(=O)c2cccc(Cl)c2)c1 [CBK263651] | 106
7 | c1ccc(-c2cc3nccc(-c4ccccc4)n3n2)cc1 [CBK287871] | 93.7
8 | O=C(c1cccnc1)N1CCC(c2cccc(Cc3ccc(C(F)(F)F)cc3)n2)CC1 [CBK286222] | 95.4
9 | Clc1nccnc1NCCOc1ccccc1 [CBK113564] | 93.8
10 | O=C(Cc1c[nH]c2ccccc12)N1CCC2(CCCN(C(=O)c3cccc(C(F)(F)F)c3)C2)C1 (stereo not shown) [CBK131578] | 97.2
11 | O=C(O)c1cccnc1SC1CC(=O)N(c2cccc(Cl)c2Cl)C1=O (stereo not shown) [CBK269306] | 110
12 | Cc1cc(S(=O)(=O)Nc2cc(C3CC3)nn2C)c(C)cc1Cl [CBK043994] | 111
13 | O=C(Nc1ccc(F)cc1F)Nc1cc(Cl)sc1Cl [CBK019967] | 102
14 | COc1cc2c(cc1CN(Cc1ccc3c(c1)OCO3)CC(C)O)CCC2 (stereo not shown) [CBK286473] | 91.6
15 | COC(=O)C1ON2CCCCC2C1(O)C(F)(F)F (stereo not shown) [CBK007430] | 90.6
16 | CC(NC(=O)CCC(=O)O)C12CC3CC(CC(C3)C1)C2 (stereo not shown) [CBK287105] | 97.9
17 | CCCCc1ccc(C(N)=O)nc1C(N)=O [CBK005061] | 88.8
18 | CCCCN(C=O)c1c(CC)nc2ccc(C(=O)NCC3CCCCC3)cn12 [CBK145708] | 85.3
19 | N#Cc1c(NC(=O)CSc2ncnc3c2cnn3-c2ccccc2)sc2c1CCCC2 [CBK269478] | 92.6
20 | CSc1c(C#N)c(-c2cc(C(C)(C)C)on2)nn1C [CBK006360] | 96.4
21 | COc1ccc(C2CC(c3ccc4ccccc4c3)=NN2C(=O)COc2ccccc2C(=O)O)cc1 (stereo not shown) [CBK297503] | 102
22 | O=C(CN1CCCCCC1)N1CCCC1c1n[nH]cc1-c1cccc(Cl)c1 (stereo not shown) [CBK283084] | 94.7

Row | SMILES | viability at 28.5 h, 10 µM [%]
23 | O=[N+]([O-])c1cc(S(=O)(=O)Nc2cccc3ccccc23)ccc1N1CCNCC1 [CBK015584C] | 90
24 | CN(C)c1ccccc1-c1cc(NCCc2ccccn2)ncn1 [CBK037189] | 102
25 | COc1ccc(-c2nnc(SC(C)C(=O)Nc3cc(C)no3)n2CC2CCCO2)cc1 (stereo not shown) [CBK297879] | 84.8
26 | CCCS(=O)(=O)n1c(=O)n(Cc2ccc(OC)cc2)c2ccccc21 [CBK106553] | 99.7
27 | Cn1c(=O)c2c(nc(CN3CCOCC3)n2CC(=O)c2ccccc2)n(C)c1=O [CBK269195] | 93.2
28 | Cc1nc(NC(=O)Cn2c3c(c4ccccc42)CCC3)nn1C [CBK281377] | 85.5
29 | Cc1cc(N2C(=O)c3ccc(Oc4ccc5c(c4)C(=O)N(c4cc(C)on4)C5=O)cc3C2=O)no1 [CBK266463] | 85.8
30 | CCc1cn(CC(C(=O)OC)N(C)C)c(=O)[nH]c1=O (stereo not shown) [CBK289706] | 107
31 | CCNC(=O)N(C)C1CCN(c2ncnc3ccccc23)CC1 [CBK305537] | 110
32 | CC(C)c1ccc(S(=O)(=O)N(c2ccccc2)C2CCNCC2)cc1 [CBK165088T] | 108
33 | Cc1cc(Cl)ccc1CNC(=O)c1ccc2[nH]ccc2c1 [CBK149048] | 81.7
34 | Cn1ccc(C(=O)NC(Cc2cccs2)c2nccs2)n1 (stereo not shown) [CBK285135] | 91.4
35 | CCCCOc1ccc(-c2nnn(CC(=O)Nc3ccccc3)n2)cc1 [CBK070609] | 90.2
36 | CC(=O)Nc1cccc(-n2ncc(-c3cccnc3)n2)c1 [CBK112811] | 98.7
37 | CCOC(=O)N1CCN(S(=O)(=O)c2ccc3[nH]c(=O)oc3c2)CC1 [CBK304679] | 105
38 | CC1CCc2nn(CCNC(=O)c3ccco3)c(=O)cc2C1 (stereo not shown) [CBK284481] | 95.2
39 | CC(C)(C)CC(=O)N1C[C@@H]2C[C@H](C1)c1ccc(NS(=O)(=O)c3cccs3)c(=O)n1C2 [CBK288708] | 80.6
40 | COc1ccc([C@@]23CC[C@@H](NS(=O)(=O)c4ccc5ccccc5c4)C[C@@H]2N(C)CC3)cc1OC [CBK056848T] | 96.8
41 | Cc1cc2cn([C@@H]3O[C@H](CO)[C@H](O)C3O)c(=O)nc2[nH]1 (stereo partly shown) [CBK201219] | 98
42 | Cc1onc(-c2ccccc2)c1NC(=O)Nc1cc2ccccc2c(Br)n1 [CBK105489] | 96.5
43 | O=C(O)CCc1ccc(-c2ccc(F)cc2)n1CCc1ccccc1 [CBK265936] | 108
44 | Cc1cc(C)nc(SCC(=O)Nc2cccc(C(=O)O)c2)n1 [CBK263214] | 101

Row | SMILES | viability at 28.5 h, 10 µM [%]
45 | COC1C(O)C(CO)OC1n1ccc(NC(=O)c2ccccc2)nc1=O (stereo not shown) [CBK201212] | 94.8
46 | O=C1CC(C(=O)Nc2ccc(Cl)cc2)c2c(nc(SCc3ccccc3F)[nH]c2=O)N1 (stereo not shown) [CBK294437] | 93.6
47 | C1=CCC(CN(CCCn2ccnc2)CC2CCOC2)CC1 (stereo not shown) [CBK283217] | 88.8
48 | O=C1CC(C(=O)Nc2ccccc2)NC(Nc2cc(Cl)cc(Cl)c2)=N1 (stereo not shown) [CBK268752] | 106
49 | O=[N+]([O-])c1cccc(/C=N/Nc2nc(-c3ccccc3)cc(-c3ccccc3O)n2)c1 [CBK261722] | 95.8
50 | Cc1ccc(OC(C)C(=O)Nc2cc(C(C)(C)C)on2)cc1C (stereo not shown) [CBK288251] | 107
51 | c1ccc(OCCN2CCCN(c3nccc(OCC4COc5ccccc5O4)n3)CC2)cc1 (stereo not shown) [CBK083980] | 94
52 | COc1cccc(CNc2ccc(S(N)(=O)=O)cc2)c1OCc1ccccc1F [CBK267906] | 108
53 | Cc1nc(C2CCCN(C(=O)C3CCCO3)C2)c2sccn12 (stereo not shown) [CBK282241] | 106
54 | Cc1ccccc1-c1ccccc1CC1(C(=O)N(C)C)CCN(C(=O)CC(C)C)CC1 [CBK285714] | 93.6
55 | COc1ccc(NC(=O)C2CN(S(=O)(=O)c3ccccc3)CCN2S(=O)(=O)c2ccccc2)cc1 (stereo not shown) [CBK262500] | 98.5
56 | Cc1nc(C)c(C(=O)Nc2nn(C)c3cccc(N4CCOCC4)c23)o1 [CBK306534] | 83.8
57 | CCOC(=O)c1cnc(SCCc2ccccc2)nc1N [CBK085871] | 88.1
58 | CC1=C[C@@H](CO)[C@H](C(C)C)C[C@H]1CC(=O)N1CCN(CCO)CC1 [CBK289217] | 85.7
59 | O=S(=O)(c1ccc(-c2cncc(-c3ccc(O)cc3)n2)cc1)N1CCOCC1 [CBK123786] | 84.6
60 | CCn1c2ccccc2c2cc(C(N)=O)c(N)nc21 [CBK019787] | 85.2
61 | O=C(NC1Cc2ccccc2C1)c1nccc2ccccc12 [CBK200356] | 97
62 | Cc1[nH]nc(O)c1C(c1ccc(OC(=O)c2ccc(F)cc2)cc1)c1c(O)n[nH]c1C [CBK264816] | 96.8
63 | C[C@H](NC(=O)N1CCN(C(=O)c2c[nH]c3ccccc23)CC1)C(=O)O [CBK286581] | 84.5
64 | O=C(O)CCCn1cc(NC(=O)CCc2ccccc2)cn1 [CBK287055] | 86.4
65 | Cc1ccc(-c2nnc3s/c(=C\c4ccc([N+](=O)[O-])cc4)c(=O)n23)cc1 [CBK264882] | 101
66 | O=C(Cc1ccc(F)cc1)N1CCCC(c2nccnc2-c2cccc(C(F)(F)F)c2)C1 (stereo not shown) [CBK286210] | 99.8

Row | SMILES | viability at 28.5 h, 10 µM [%]
67 | Cc1cnn(C2CCCN(C(=O)CCCc3cccs3)C2)c1 (stereo not shown) [CBK304168] | 96.3
68 | Cc1ccn(CCC(=O)NC(C)c2cccnc2)n1 (stereo not shown) [CBK282197] | 97.6
69 | O=C(O)COc1c(-c2ccco2)oc2ccccc2c1=O [CBK269262] | 96.9
70 | CC1OC(n2ccc(=S)[nH]c2=O)C(O)C1O (stereo not shown) [CBK012231] | 103
71 | Cc1csc(C(Cc2ccsc2)NC(=O)Cn2ccnc2)n1 (stereo not shown) [CBK285113] | 106
72 | Fc1ccc(NC(=S)NNC(=S)Nc2cccc3ccccc23)c(F)c1 [CBK266982] | 89.8
73 | Cc1cc(C)n(CCNC(=O)N2CCC(Oc3cccnc3)CC2)n1 [CBK306719] | 109
74 | O=C(O)c1c[nH]cn1 [CBK260978G] | 97
75 | COc1cc(CNc2cc(-c3ccsc3)ncn2)cc(OC)c1OC [CBK037794] | 92
76 | O=C(O)c1ccc(C(=O)O)c2c(-c3ccc(C(=O)O)c4c(C(=O)O)ccc(C(=O)O)c34)ccc(C(=O)O)c12 [CBK261267] | 98.4
77 | CCC(CC)C(=O)N(C)c1c(C)nc2c(OCC(=O)c3ccc(F)cc3)cccn12 [CBK147239] | 113
78 | COc1cc2c(cc1OC)CN(C(=O)c1ccccn1)CC2 [CBK115864] | 98.5
79 | FC(F)(F)c1nc2ccccc2nc1SCc1ccco1 [CBK107201] | 85.9
80 | CN(CCOc1ccc(CC2SC(=O)NC2=O)cc1)c1ccccn1 (stereo not shown) [CBK013537] | 101
81 | CCN1CCC2(CC1)NC(=O)Cc1ccccc12 [CBK039810] | 96
82 | CC(C)C(=O)N1CCC(n2nc(-c3ccco3)ccc2=O)CC1 [CBK284244] | 83.8
83 | CCC(=O)Nc1sc2c(c1-c1nc3ccccc3s1)CCCC2 [CBK287324] | 91.7
84 | COc1ccc(C)cc1NS(=O)(=O)CC(C)C [CBK111346] | 93.8
85 | CCn1c(C)nc2cc(NC(=O)c3ccc(CN(C)C)cc3)ccc21 [CBK281880] | 106
86 | CN(C(=O)c1cc(S(=O)(=O)N2CCOCC2)ccc1F)C1CCCCC1 [CBK304580] | 114
87 | CCN1CC2(CCN(CC3CC3)CC2)c2ccccc21 [CBK136987] | 92.6

Same assay, conditions: human, hela cells, % viability, bulk resorufin, single well

Row | SMILES | viability at 28.5 h, 10 µM [%]
88 | Cc1nnsc1C(=O)N[C@H]1CCN2C(=O)N(CCCl)C(=O)[C@@H]2C1 [CBK289550] | 95.6
